Experimental data reported in the supplement of paper PMC10307832.

Assays:
Assay in all cases: relative viability (nuclei count vs DMSO), 5 days (fraction); higher = more cells survive
[1] = compound: CC[C@@H](C)CNCC(=O)N1CCC2=C([C@@H]1COC3=CC=CC(=C3)C)C=CS2 [RU-SKI 43] + N=C(N)NC(=N)NCCc1ccccc1 [Phenformin] (partner 250 µM)
In short: (§1)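 Relative viability is defined as nuclei in treated wells over nuclei in vehicle wells. Duplicate plates were run and medians reported. Lung cancer cell lines in 1536-well plates were dosed by pin tool one day after seeding, with one drug or with a fixed anchor-drug dose plus five library-drug doses (not always all listed) in √10 steps, and nuclei were counted after 5 days.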

[2] = compound: CCc1c2c(nc3ccc(OC(=O)N4CCC(N5CCCCC5)CC4)cc13)-c1cc3c(c(=O)n1C2)COC(=O)[C@]3(O)CC [Irinotecan] + CC(=O)Nc1cccc(-n2c(=O)n(C3CC3)c(=O)c3c(Nc4ccc(I)cc4F)n(C)c(=O)c(C)c32)c1 [Trametinib] (partner 0.02 µM)
In short: as §1

[3] = compound: CCc1c2c(nc3ccc(OC(=O)N4CCC(N5CCCCC5)CC4)cc13)-c1cc3c(c(=O)n1C2)COC(=O)[C@]3(O)CC [Irinotecan] + CCNC(=O)c1noc(-c2cc(C(C)C)c(O)cc2O)c1-c1ccc(CN2CCOCC2)cc1 [Luminespib] (partner 0.01 µM)
In short: as §1

[4] = compound: CC[C@@H](C)CNCC(=O)N1CCC2=C([C@@H]1COC3=CC=CC(=C3)C)C=CS2 [RU-SKI 43] + CC1(C)CCC(c2ccc(Cl)cc2)=C(CN2CCN(c3ccc(C(=O)NS(=O)(=O)c4ccc(N[C@H](CCN5CCOCC5)CSc5ccccc5)c(S(=O)(=O)C(F)(F)F)c4)cc3)CC2)C1 [Navitoclax] (partner 0.5 µM)
In short: as §1

| Cell Line | relative viability ([1]; first compound 0.1 µM) | relative viability ([1]; first compound 0.3162 µM) | relative viability ([1]; first compound 1 µM) | relative viability ([1]; first compound 3.162 µM) | relative viability ([1]; first compound 10 µM) | relative viability ([2]; first compound 0.6325 µM) | relative viability ([2]; first compound 2 µM) | relative viability ([2]; first compound 6.325 µM) | relative viability ([2]; first compound 20 µM) | relative viability ([3]; first compound 0.6325 µM) | relative viability ([3]; first compound 2 µM) | relative viability ([3]; first compound 6.325 µM) | relative viability ([3]; first compound 20 µM) | relative viability ([4]; first compound 0.1 µM) | relative viability ([4]; first compound 0.3162 µM) | relative viability ([4]; first compound 1 µM) | relative viability ([4]; first compound 3.162 µM) | relative viability ([4]; first compound 10 µM) |
| --- | --- | --- | --- | --- | --- | --- | --- | --- | --- | --- | --- | --- | --- | --- | --- | --- | --- | --- |
| NCI-H650 | 0.479 | 0.37 | 0.509 | 0.425 | 0.475 | 0.733 | 0.308 | 0.173 | 0.206 | 0.635 | 0.322 | 0.139 | 0.199 |  |  |  |  |  |
| NCI-H2023 | 0.421 | 0.471 | 0.466 | 0.43 | 0.396 | 0.589 | 0.646 | 0.261 | 0.0947 | 0.467 | 0.256 | 0.127 | 0.0843 | 1.01 | 1.3 | 1.08 | 1.09 | 0.977 |
| NCI-H1563 | 0.607 | 0.653 | 0.706 | 0.668 | 0.61 |  |  |  |  | 0.608 | 0.269 | 0.497 | 0.524 |  |  |  |  |  |
| LCLC-103H | 0.318 | 0.388 | 0.435 | 0.346 | 0.343 | 0.655 | 0.603 | 0.463 | 0.479 | 0.83 | 0.502 | 0.348 | 0.501 |  |  |  |  |  |
| HCC-15 | 0.49 | 0.53 | 0.55 | 0.511 | 0.521 | 0.325 | 0.233 | 0.179 | 0.174 |  | 0.234 | 0.121 | 0.126 | 0.769 | 0.81 | 0.715 | 0.757 | 0.735 |
| NCI-H838 | 0.682 | 0.626 | 0.745 | 0.654 | 0.682 | 0.672 | 0.647 | 0.319 | 0.171 | 0.23 | 0.262 | 0.213 | 0.266 | 1.17 | 1.31 | 1.27 | 1.22 | 1.1 |
| NCI-H2009 | 0.49 | 0.514 | 0.519 | 0.474 | 0.424 | 0.282 | 0.34 | 0.213 | 0.0843 | 0.863 | 0.486 | 0.25 | 0.252 | 1.11 | 1.21 | 1.17 | 1.15 | 1.1 |
| NCI-H2228 | 0.239 | 0.407 | 0.237 | 0.329 | 0.278 | 0.279 | 0.611 | 0.402 | 0.437 | 0.14 | 0.177 | 0.318 | 0.276 | 0.91 | 1.3 | 0.995 | 1.25 | 0.987 |
| NCI-H460 | 0.534 | 0.973 | 0.788 | 0.575 | 0.467 | 0.086 | 0.159 | 0.089 | 0.0313 | 0.019 | 0.0388 | 0.0428 | 0.047 | 1.15 | 1.23 | 1.34 | 1.44 | 1.11 |
| NCI-H522 | 0.663 | 0.746 | 0.749 | 0.647 | 0.684 | 0.67 | 0.599 | 0.517 | 0.476 |  | 0.645 | 0.468 | 0.495 |  |  |  |  |  |
| NCI-H1703 |  |  |  |  |  |  |  |  |  |  |  |  |  | 1.2 | 1.08 | 0.987 | 1.16 | 0.535 |
| NCI-H1793 | 0.401 | 0.391 | 0.464 | 0.323 | 0.3 |  | 0.515 | 0.351 | 0.262 |  | 0.193 | 0.192 | 0.262 | 0.458 | 0.417 | 0.425 | 0.511 | 0.318 |
| NCI-H596 | 0.776 | 0.808 | 0.725 | 0.921 | 0.77 | 0.86 | 0.731 | 0.682 | 0.758 | 0.884 | 0.963 | 0.71 | 0.801 | 0.896 | 0.833 | 0.994 | 1.06 | 1.01 |
| NCI-H2347 | 0.34 | 0.352 | 0.544 | 0.36 | 0.383 | 0.271 | 0.382 | 0.351 | 0.415 | 0.355 | 0.365 | 0.284 | 0.321 | 0.718 | 0.836 | 0.904 | 0.424 | 0.7 |
| NCI-H358 | 0.305 | 0.432 | 0.402 | 0.436 | 0.271 | 0.106 | 0.131 | 0.125 | 0.071 | 0.285 | 0.152 | 0.151 | 0.143 |  |  |  |  |  |
| NCI-H1648 |  |  |  |  |  | 0.441 | 0.383 | 0.299 | 0.323 |  |  |  |  |  |  |  |  |  |
| NCI-H1299 |  |  |  |  |  |  |  |  |  |  |  |  |  | 1.04 | 1.09 | 1.07 | 1.01 | 1.03 |
| HCC-366 | 0.616 | 0.676 | 0.652 | 0.582 | 0.453 | 0.266 | 0.184 | 0.0834 | 0.0768 |  |  |  |  | 1.04 | 1.5 | 1.06 | 1.18 | 1.05 |
| IA-LM |  |  |  |  |  |  |  |  |  |  |  |  |  | 0.752 | 0.751 | 0.856 | 0.738 | 0.824 |
| ABC-1 | 0.189 | 0.239 | 0.227 | 0.255 | 0.213 |  |  |  |  |  | 0.528 | 0.352 | 0.269 |  |  |  |  |  |
| SW 900 | 0.626 | 0.64 | 0.785 | 0.687 | 0.611 |  | 0.522 | 0.275 | 0.284 | 0.203 | 0.387 | 0.366 | 0.465 |  |  |  |  |  |
| NCI-H2342 | 0.606 | 0.562 | 0.584 | 0.528 | 0.634 | 0.872 | 0.89 | 0.786 | 0.494 | 0.756 | 0.676 | 0.572 | 0.485 |  |  |  |  |  |
| A549 | 0.186 | 0.16 | 0.156 | 0.113 | 0.143 |  |  |  |  |  |  |  |  | 1.24 | 1.51 | 1.17 | 1.23 | 1.08 |
| NCI-H661 | 0.288 | 0.281 | 0.324 | 0.281 | 0.267 | 0.464 | 0.524 | 0.535 | 0.209 | 0.848 | 0.822 | 0.41 | 0.195 |  |  |  |  |  |
